Source: patent US5760213A, “Immunoactivating agent” (Tayca Corporation, priority 1995, dated 1998)

Columns and labels:
rats = details: oral administration to rats, cited from earlier work
Sarcoma 180 cancer cells = assay: Determination of Cancer Growth Inhibitory Effect (Sarcoma 180 solid cancer in ICR mice); assay type: in vivo; details: Sarcoma 180 subcutaneous graft, 30 mg/kg per day intraperitoneally for 10 days, tumor weight after 5 weeks
Description: (§1) First, 1 wt % aqueous solutions of the respective polysaccharides obtained in the above Preparation Examples were prepared. A cationic ion exchange resin was added to each solution to convert the counter ions of carboxyl group of glucuronic acid residue in the polysaccharide into hydrogen ions, and then the solution was neutralized with sodium hydroxide to replace the counter ions with sodium ions, then passed through a 0.2 μm-opening membrane filter and freeze-dried. The resulting polysaccharide preparations were subjected to the following tests.

TNF = assay: Measurement of Tumor Necrosis Factor (TNF) inducibility; assay type: in vivo; details: serum 90 minutes after injection, 100 μg/0.2 ml intravenously, MDP-primed C3H/He mice; average value ± standard deviation
Description: as §1
(§2) These mice were left under observation for anaphylaxis-like reaction and sudden death. After 90 minutes from the injection, blood was collected from the surviving mice to determine TNF and IL-6 activities in the serum. TNF activity was calculated on the basis of the ratio of activity of the actinomycin D-treated L-929 cells to that of rHuTNF (human recombination TNF) used as control, with the killing action of the said L-929 cells being taken as index, and indicated by ng/ml. In the case of IL-6 activity, the IL-6 dependent MH60.BSF2 cell growth stimulating action was taken as index, and the IL-6 activity was calculated on the basis of the calibration curves obtained from the test of IL-6 and control rHuIL-6, and indicated by U/ml.

IL-6 = assay: Measurement of Interleukin (IL-6) inducibility; assay type: in vivo; details: serum 90 minutes after injection, 100 μg/0.2 ml intravenously, MDP-primed C3H/He mice; average value ± standard deviation
Description: as §1, §2

C3H/He mice = assay: Observation for anaphylaxis-like reaction and sudden death in MDP-primed mice; assay type: in vivo; details: 100 μg/0.2 ml intravenously, 4 hours after MDP
Description: as §1, §2

[1] = system: myeloma cell strain NS-1/Z; assay: Determination of Cytotoxic T Cell (CTL) Inducibility; assay type: in vivo, BALB/c mouse (target cells); C3H mice (effector cells); details: 20 mg/kg/day, subcutaneous, four times, relative to physiological saline control
Description: as §1
The following test was conducted on the C3H mice and BALB/c mice which are different in H-2 haplotype.
The spleen lymphocytes (2×10^7) of the BALB/c mice were immunized in the abdominal cavities of the C3H mice (4 mice per group: N=4). Each of the test specimens shown in Table 5 was given subcutaneously to the back of each of the said C3H mice at a dose of 50 mg/kg or 20 mg/kg, once a day, four times in all, from the day before immunization till 2 days after immunization. As control, physiological saline was used instead of the test specimens. After 9 days, the spleen lymphocyte suspension was collected from the C3H mice. This lymphocyte suspension contained the cytotoxic T cells (hereinafter referred to as effector cells and abbreviated as E). Then, 10^4 cells of myeloma cell strain NS-1/Z (hereinafter abbreviated as T) derived from the BALB/c mouse into which β-galactosidase (β-gal) of Escherichia coli had been introduced, were mixed as target cells with the effector cells so that the E/T ratio would become 30, 60 or 120, and the mixture was kept in 0.2 ml of a medium RPMI-1640 at 37° C. for 4 hours. The activity of β-gal released into the supernatant by destruction of the target cells was measured, and the cytotoxicity by CTL was calculated from the following equation. [formula] A: released β-gal activity B: naturally released β-gal activity (enzyme release observed when no effector cells are present)
C: overall β-gal activity (T used is dissolved in 0.0425% Triton-X100 and the overall enzyme activity is measured.) [formula]

Q: What does the source list for `O=P1(N(CCCl)CCCl)NCCCO1` (stereo not shown) [Cyclophosphide]?
A: LD50 (female) (rats; female): 118 mg/kg; LD50 (male) (rats; male): 100 mg/kg

Q: With Lentinan as the compound, how does the “Cancer cell growth inhibition percentage” value (Sarcoma 180 cancer cells) read?
A: Its value is 100%.

Q: With Schizophyllan as the compound, how does the TNF (TNF) read?
A: The TNF was 0 ± 0 ng/mL.

Q: And the IL-6 (IL-6)?
A: Its IL-6 is 14.1 ± 2.2 U/ml.

Q: And the Anaphylaxis-like reaction (C3H/He mice)?
A: Its Anaphylaxis-like reaction is 0/3.

Q: What about the Sudden death (C3H/He mice) of the same compound?
A: Its Sudden death is 0/3.

Q: What about the “Immunoactivating activity, E/T = 30” value ([1]; E/T = 30) of the same compound?
A: The value was 5.5.

Q: And the “Immunoactivating activity, E/T = 60” value ([1]; E/T = 60)?
A: Its value is 2.0.

Q: What about the “Immunoactivating activity, E/T = 120” value ([1]; E/T = 120) of the same compound?
A: The value was 1.7.
